Experimental data published in article PMC6272662, “Trypanocidal Activity of Long Chain Diamines and Aminoalcohols” (Molecules, 2015).
Like-named read-outs stand apart in the source and are kept apart here.

What was measured:
Chagas disease = test system: Chagas disease; design: method as in PMID 22614520, PMID 22760123, PMID 22686518, PMID 19967227; details: ref [6],[7],[8],[9], cited from earlier work
in vitro = details: mouse
Description: (§1) The mouse cell lines J774.2 macrophages and NCTC clone 929 fibroblasts were used and cultured in plastic culture flasks. J774.2 and NCTC-929 cells were grown using DMEM and BME without phenol-red, respectively. Both media were supplemented with 10% heat inactivated fetal calf serum, 2 mM glutamine, 100 U/mL penicillin and 100 μg/mL streptomycin. Cell cultures were maintained at 37 °C in a humidified atmosphere containing 5% CO2 and subpassaged once a week. Cells in the pre-confluence phase were harvested with an EDTA-trypsin solution for the experiments.
(§2) Unspecific cytotoxicity was evaluated over phagocytic macrophages J774.2 cell line. To study cytotoxicity on J774.2 cells, 200 μL of a suspension of 2 × 10^5 macrophages/mL were added to 96 well flat-bottom microplates (Sigma). Cells were allowed to attach for 24 h at 37 °C and then exposed to the compounds for 72 h at the same concentrations as used for drug screening. […] Each concentration was assayed by triplicate, in independent experiments. Cytotoxicity was assessed by the Trypan Blue and XTT techniques and LC50 was calculated as described above.

[1] = test system: Trypanosoma cruzi epimastigotes strain MG (MHOM/CO/04/MG); assay: Epimastigote susceptibility assay, MG strain (Trypan Blue and XTT); format: cell-based; details: for MG Strain SI (Selectivity Index: LC50-macrophages/IC50-epimastigotes): MG strain epimastigotes vs J774.2 macrophages; for IC50 / MG Strain PNFX (potency relative to NFX = IC50-NFX/IC50-compound; also called NI): MG strain; for IC50: 72 h at 28 °C, 0.1-70.0 µM, mean ± SEM
Description: (§3) For in vitro studies, the strains MHOM/CO/04/MG (MG), MHOM/CO/05/JEM (JEM) and CL Brener strain clone B5 (CL-B5) were used. The MG and JEM strains correspond to Group I and Haplotype Ia isolates from two Colombian patients in the acute phase, and CL-B5 is a strain stably transfected with Escherichia coli β-galactosidase gene (lacZ). Epimastigotes were grown in plastic culture flasks at 28 °C, in axenic liver-infusion tryptose (LIT) growth medium, supplemented with 10% heat inactivated (30 min at 56 °C) foetal calf serum (FCS; Sigma), […] hemin (Sigma), and 10 µg/mL gentamycin (Sigma) and harvested in the exponential phase for conducting the experiments. Cultures were continuously maintained in logarithmic growth by weekly passages.
(§4) Three different strains of T. cruzi were used for the primary screening on epimastigote forms. For strains MG and JEM, the screening assay was performed with approximately 1 × 10^5 epimastigotes in logaritmic growth phase in 200 μL of supplemented LIT medium per well in 96-well flat bottoned plates (Costar, Corning, Cornig, NY, USA). […] The plates were incubated for 72 h at 28 °C and all experimental conditions were evaluated in triplicate in three independent experiments. The epimastigote growth inhibition was microscopically determined by the Trypan Blue dye exclusion assay and XTT (2,3-bis-(2-methoxy-4-nitro-5-sulfophenyl)-5-[(phenylamino)carbonyl]-2H-tetrazolium hydroxide). Regarding the first method, an aliquot from every culture was suspended in 0.4% trypan blue solution for 5 min and cell viability was determined under microscope by counting live parasites in each condition in a Neubauer chamber. Anti-epimastigote activity percentage was calculated as (Parasite counts in control wells-Parasite counts in experimental wells) × 100/Parasite counts in control wells. Trypanocidal activity over both strains was also measured adding 50 μL of XTT solution per well to obtain a final concentration of 0.3 mg/mL. The plate was re-incubated 24 h in the dark at 37 °C and orange formazan solution formed, was spectrophotometrically quantified at 450 nm with a 630 nm reference filter, using an Ear400FT ELISA reader.
(§5) Furthermore the Selectivity Index (SI = mammalian cell LC50/epimastigote IC50) for each compound was calculated to compare the antiprotozoal activity with its respective mammalian cell cytotoxicity.

[2] = test system: Trypanosoma cruzi epimastigotes strain JEM (MHOM/CO/05/JEM); assay: Epimastigote susceptibility assay, JEM strain (Trypan Blue and XTT); format: cell-based; details: for JEM Strain SI (Selectivity Index: LC50-macrophages/IC50-epimastigotes): JEM strain epimastigotes vs J774.2 macrophages; for IC50 / JEM Strain PNFX (potency relative to NFX = IC50-NFX/IC50-compound; also called NI): epimastigotes, JEM strain; for IC50: 72 h at 28 °C, 0.1-70.0 µM, mean ± SEM
Description: as §3, §4, §5

J774.2 macrophages = assay: in vitro; details: macrophages LC50 relative to NFX
Description: as §1, §2

[3] = Trypanosoma cruzi, 72 h, epimastigotes

Compound	average cure rate (Chagas disease; acute cases of Chagas disease) [%]	mild to moderate dermatitis (Chagas disease; adults)	average cure rate (Chagas disease; chronic cases of Chagas disease)	CC50 at 72 h (in vitro) [µM]	MG Strain SI (Selectivity Index: LC50-macrophages/IC50-epimastigotes) [1]	IC50 [1, 3] [µM]	MG Strain PNFX (potency relative to NFX = IC50-NFX/IC50-compound; also called NI) ([1]; epimastigotes)	JEM Strain SI (Selectivity Index: LC50-macrophages/IC50-epimastigotes) [2]	IC50 ([2]; Trypanosoma cruzi, 72 h) [µM]	JEM Strain PNFX (potency relative to NFX = IC50-NFX/IC50-compound; also called NI) [2]	IC50 ([1]; epimastigotes) [µM]	times greater activity on the MG strain than the JEM strain ([1]; epimastigotes, MG vs JEM IC50)	IC50 [2] [µM]	times less toxic than NFX (J774.2 macrophages)
O=C(Cn1ccnc1[N+](=O)[O-])NCc1ccccc1 [Bz, benznidazole]	~80	up to 30%	less than 20%	–	–	–	–	–	–	–	–	–	–	–
CCCCCCCCCCC(N)CO (stereo not shown) [Compound 1]	–	–	–	14 ± 0.9	1.0	14.5 ± 3.15	1.5	0.4	33 ± 1.7	0.4	–	–	–	–
CCCCCCCCCCCCCCCCC(N)CO (stereo not shown) [Compound 3]	–	–	–	3 ± 0.24	0.1	46.2 ± 2.5	0.5	0.3	9.9 ± 1.65	1.5	–	–	–	–
CCCCCCCCCCC(CO)NCCCCCC (stereo not shown) [Compound 4]	–	–	–	36.1 ± 2.3	1.7	21.1 ± 1.25	1.0	1.0	37.2 ± 1.25	0.4	–	–	–	–
CCCCCCCCCCCCCCC(CO)NCCCCCC (stereo not shown) [Compound 7]	–	–	–	8.2 ± 1.55	1.3	6	3.5	–	> 70	–	6.1 ± 0.15	11	> 70	–
CCCCCCCCCCCCCCCCC(CO)NCCCCCC (stereo not shown) [Compound 8]	–	–	–	26 ± 0.2	–	> 70	–	–	> 70	–	–	–	–	–
CCCCCCCCCCC(CO)N(CCCC)CCCC (stereo not shown) [Compound 9]	–	–	–	63.7 ± 0.73	1.6	39.2 ± 0.2	0.5	1.3	50.5 ± 0.7	0.3	–	–	–	1.3
CCCCCCCCCCCCCCC(CO)N(CC)CC (stereo not shown) [Compound 10]	–	–	–	5.6 ± 0.27	–	> 70	–	–	> 70	–	–	–	–	–
CCCCCCCCCCCCCCCCC(CO)N(CCCC)CCCC (stereo not shown) [Compound 11]	–	–	–	–	–	> 70	–	–	50.3 ± 0.1	0.3	–	–	–	–
CCCCCCCCCCCCCCC(N)COCc1ccccc1 (stereo not shown) [Compound 12]	–	–	–	27.7 ± 0.1	0.8	34.4 ± 1.8	0.6	1.0	28.8 ± 1.2	0.5	–	–	–	–
CCCCCCCCCCCCCCC(COCc1ccccc1)NCCCC (stereo not shown) [Compound 13]	–	–	–	–	–	> 70	–	–	> 70	–	–	–	–	–
CCCCCCCCCCCCCCCCC(CN)NC(=O)OC(C)(C)C (stereo not shown) [Compound 16]	–	–	–	24.1 ± 0.2	1.7	13.9 ± 1	1.5	3.6	6.7 ± 2.1	2.2	–	–	–	–
CCCCCCCCCCCCCCC(CNCCCCCC)NC(=O)OC(C)(C)C (stereo not shown) [Compound 17]	–	–	–	4.2 ± 0.05	0.2	26.7 ± 0.25	0.8	0.1	30.6 ± 0.65	0.5	–	–	–	–
CCCCCCCCCCCCCCC(CN(CCCCCC)CCCCCC)NC(=O)OC(C)(C)C (stereo not shown) [Compound 18]	–	–	–	–	–	> 70	–	–	> 70	–	> 70	–	> 70	–
CCCCCCCCCCCCCCC(N)CN (stereo not shown) [Compound 19]	–	–	–	78.1 ± 0.85	4.1	19.2 ± 2.9	1.1	2.9	26.6 ± 0.7	0.6	–	–	–	–
CCCCCCCCCCCCCCC(N)CNCCCCCC (stereo not shown) [Compound 20]	–	–	–	5 ± 0.1	0.2	42.2	0.6	0.1	> 70	0.3	32.9 ± 1.25	–	48.8 ± 1.05	–
CCCCCCCCCCCCCCCCC(N)CN(CC)CC (stereo not shown) [Compound 21]	–	–	–	9.3 ± 0.5	0.2	42.2 ± 1.4	0.5	–	> 70	–	–	–	–	–
